According to US6630499B1, “Control of arthropods in animals” (Aventis CropScience, S.A., priority 1998, dated 2003):

Experiments:
Format in all cases: in vivo
[1] = tested on: cat fleas (Ctenocephalides felis); test: Control of cat fleas on treated dogs (Biological Examples 1-3); settings: 10 mg/kg; for % Control 1 DPT (Fleas/Ticks): Fleas: dogs, 30 mg/mL in 1:1 dimethyl sulfoxide/corn oil, 1 day post-treatment, versus placebo group
Method: (§1) All dogs were infested with cat fleas (Ctenocephalides felis) and with ticks (Rhipicephalus sanguineus) 1 day prior to administration of the compound. Cats were only infested with fleas. The initial flea and tick counts were performed 1 day after the administration of the compounds. At 7, 14, 21 and 28 days after treatment the dogs were re-infested with ticks and 8, 15, 22 and 29 days after treatment the dogs and cats were re-infested with fleas. At 1, 9, 16, 23 and 30 days after treatment the control of fleas and ticks in treated dogs and cats was determined versus a group of infested dogs and cats which received a placebo consisting of a 1:1 volume/volume solution of dimethyl sulfoxide and corn oil. To determine the efficacies of the compounds, the arthropods were combed from the animals and counted.
(§2) The compounds listed below were formulated and tested as described in Biological Example 1, again at the dosage level of active ingredient of 10 mg/kg in dogs and 20 mg/kg in cats. Results at 1 DPT (day post-treatment) are tabulated below, where the compound numbers are the same as those listed in Tables 1, 2, 4, 5, 6, 7, 8, 9, 10, 11, 12 and 13 hereinabove.
(§3) Testing was carried out as described in Biological Example 1. […] The Huang et al compound was deemed to have insufficient activity to be tested in cats.

[2] = tested on: ticks (Rhipicephalus sanguineus); test: Control of ticks on treated dogs (Biological Examples 1-3); settings: 10 mg/kg; for % Control 1 DPT (Fleas/Ticks): Ticks: dogs, 30 mg/mL in 1:1 dimethyl sulfoxide/corn oil, 1 day post-treatment, versus placebo group
Method: as §1, §2, §3

[3] = tested on: cat fleas (Ctenocephalides felis); test: Control of cat fleas on treated cats (Biological Examples 1-3); settings: 20 mg/kg; for % Control 1 DPT (Fleas): cats, 30 mg/mL in 1:1 dimethyl sulfoxide/corn oil, 1 day post-treatment, versus placebo group
Method: as §1, §2, §3

Emesis in treated dogs = settings: 10 mg/kg; for % Emesis: dogs
Method: (§4) By the term “emesis” is meant vomiting. Generally an emetic substance elicits emesis in less than 24 hours after administration, usually less than 8 hours, more usually less than 2 hours. By the term “substantially non-emetic” is meant that, generally, when a compound or composition of the invention is administered to a population of animals, more than 70% (or at least ⅔) of the animals are free of emesis. Preferably, more than 80%, most preferably more than 90%, of said population is free of emesis.
(§5) In the animals treated with the compounds above, there was substantially no emesis after 2, 8 and 24 hours. Generally long-term control of fleas and ticks was provided in dogs. In the cats treated, there was commercially acceptable control of fleas for at least one day post treatment.
as §2

Emesis in treated cats = settings: 20 mg/kg; for % Emesis: cats
Method: as §4, §5, §2

SMILES | % Control 1 DPT (Fleas/Ticks): Fleas [1] | control of fleas at 30 DPT ([1]; group of 3 dogs, 30 DPT) | % Control 1 DPT (Fleas/Ticks): Ticks [2] | control of ticks at 30 DPT ([2]; group of 3 dogs, 30 DPT) | % Control 1 DPT (Fleas) [3] | control of fleas for at least a one month period ([3]; group of 4 cats, at least one month) | % Emesis (Emesis in treated dogs) | emesis (Emesis in treated dogs; group of 3 dogs) | % Emesis (Emesis in treated cats) | vomiting (Emesis in treated cats; group of 4 cats)
COCC(=O)N(C)c1c(SC(F)(F)F)c(C#N)nn1-c1c(Cl)cc(C(F)(F)F)cc1Cl [Compound 2-1, 1-(2,6-dichloro-4-trifluoromethylphenyl)-3-cyano-4-trifluoromethylthio-5-(N-methyl)methoxyacetamidopyrazole] | 100/100% | 93% | 100/100% | 100% | 100% | 100% | 0% | no emesis (0/3) | 0% | no vomiting
CCOCC(=O)N(C)c1c(S(=O)(=O)C(F)(F)F)c(C#N)nn1-c1c(Cl)cc(C(F)(F)F)cc1Cl [Compound 3-5] | 100/100% |  | 100/100% |  | 100% |  | 33% |  | 0% | 
CCOC(=O)N(C)c1c(SC(F)(F)F)c(C#N)nn1-c1c(Cl)cc(C(F)(F)F)cc1Cl [Compound 68-1, 3-cyano-1-(2,6-dichloro-4-trifluoromethylphenyl)-5-(N-ethoxycarbonyl-N-methyl)amino-4-trifluoromethylthiopyrazole] | 100% |  | 77% |  | 100% |  | 0% |  | 0% | 
CCCN(C(=O)COCC)c1c(SC(F)(F)F)c(C#N)nn1-c1c(Cl)cc(C(F)(F)F)cc1Cl [Compound 13-1] | 99% |  | 97% |  | 61% |  | 0% |  | 0% | 
CCN(C(=O)OC(C)C)c1c(SC(F)(F)F)c(C#N)nn1-c1c(Cl)cc(C(F)(F)F)cc1Cl [Compound 73-1] | 100/100% |  | 100/100% |  | 93% |  | 0% |  | 0% | 
COCC(=O)N(CC1CC1)c1c(S(=O)(=O)C(F)(F)F)c(C#N)nn1-c1c(Cl)cc(C(F)(F)F)cc1Cl [Compound 27-5] | 100/100% |  | 100/100% |  | 100% |  | 0% |  | 0% | 
CCOCC(=O)N(C)c1c([S+]([O-])C(F)(F)F)c(C#N)nn1-c1c(Cl)cc(C(F)(F)F)cc1Cl (racemic) [Compound 3-3] | 100% |  | 98% |  | 100% |  | 0% |  | 0% | 
CC(=O)OCC(=O)N(C)c1c(SC(F)(F)F)c(C#N)nn1-c1c(Cl)cc(C(F)(F)F)cc1Cl [Compound 36-1] | 71% |  | 92% |  | 100% |  | 0% |  | 25% | 
CCCN(C(=O)OCC)c1c(SC(F)(F)F)c(C#N)nn1-c1c(Cl)cc(C(F)(F)F)cc1Cl [Compound 76-1] | 100% |  | 86% |  | 100% |  | 0% |  | 0% | 
COC(=O)N(c1c(SC(F)(F)F)c(C#N)nn1-c1c(Cl)cc(C(F)(F)F)cc1Cl)C(C)C [Compound 79-1] | 96% |  | 86% |  | 87% |  | 0% |  | 0% | 
CC(C)OCC(=O)N(C)c1c([S+]([O-])C(F)(F)F)c(C#N)nn1-c1c(Cl)cc(C(F)(F)F)cc1Cl (centres unmarked) [Compound 4-3] | 100/100% |  | 100/100% |  | 100% |  | 33% |  | 25% | 
CCCOC(=O)N(C)c1c(SC(F)(F)F)c(C#N)nn1-c1c(Cl)cc(C(F)(F)F)cc1Cl [Compound 70-1] | 99% |  | 100% |  | 85% |  | 0% |  | 0% | 
